Laboratory results from ChEMBL document CHEMBL1146473, “Tyromycic acids B-E, new lanostane triterpenoids from the mushroom Tyromyces fissilis” (J Nat Prod, 2004).
The source made the active and inactive calls. No cut-off for these calls is given here.

Assays:
[1] = test system: Radical scavenging activity; experiment: Antioxidant activity assessed as DPPH radical scavenging activity; assay type: functional
[2] = test system: Human immunodeficiency virus 1; experiment: Antiviral activity against HIV1 infected in human MT4 cells; assay type: functional, organism-based

CC(=O)O[C@@H]1C=C2C(=CC[C@H]3C(C)(C)[C@@H](O)CC[C@]23C)[C@]2(C)CC[C@H]([C@H](C)CC/C=C(\C)C(=O)O)[C@@]12C
Activity [1]: inactive | Activity [2]: inactive

CC(=O)O[C@@H]1C2=C(CC[C@H]3C(C)(C)C(=O)CC[C@]23C)[C@]2(C)CC[C@H]([C@H](C)CC/C=C(\C)C(=O)O)[C@@]2(C)[C@@H]1OC(C)=O
Activity [1]: inactive | Activity [2]: inactive

C/C(=C\CC[C@@H](C)[C@H]1CC[C@@]2(C)C3=CC[C@H]4C(C)(C)C(=O)CC[C@]4(C)C3=C[C@@H](O)[C@]12C)C(=O)O
Activity [1]: inactive | Activity [2]: inactive
